Results reported in patent US4912036A, “Rapid differentiation of bacteria using cyclic polypeptide antibiotics” (Eastman Kodak Company, priority 1986, dated 1990).

Experiments:
[1] = tested on: K. pneumoniae; assay: RIND XXIX reduction solution assay, Δ fluorescence; type: cell-based, Klebsiella pneumoniae; conditions: K. pneumoniae (gram -) about 5×10^7 cells/ml
Description: (§1) Bacterial suspensions were prepared by growing the cells in BHT broth to stationary phase overnight at 37° C. P. auruginosa was grown with agitation. About 40 ml of each overnight culture was centrifuged, decanted and washed once with 0.05 molar potassium phosphate buffer or 0.05 molar N-2-hydroxy-ethylpiperazine-N'-2-ethanesulfonic acid (HEPES) buffer, pH 7.8, and resuspended in buffer.
(§2) Dispersions containing RIND compounds were prepared by dissolving the RIND compound in N,N-dimethylformamide (DMF) at 16 mg compound per ml of solvent. An aliquot (250 μl) of the resulting solution was added to 500 μl of TRITON X-100 surfactant. This mixture was then added dropwise with stirring to 25 ml of 0.05 molar HEPES buffer. A dispersion of RIND XXIX was prepared similarly except that DMF was acidified with 0.1% sulfuric acid. Compositions containing water-compatible RIND compounds were prepared as described above except the surfactant was omitted.
(§3) Each test solution contained the following: dispersion of RIND XXIX (25 μl) prepared as described above, glucose (400 μl of 10% aqueous solution), tryptose (400 μl of 10% aqueous solution), trimethyl-1,4-benzoquinone ETA (500 μl of 1.5 mg/ml methanol). Aliquots (200 μl) of the mixture were mixed with solutions of the antibiotics (50 μl). The cell suspensions (50 μl) were then added. The final concentration of gramcidin S and tyrocidin were 0.1 mg/ml and 3.3 mg/ml, respectively. The final cell concentration was about 5×10^7 cells/ml. Cell control solutions contained all reagents except antibiotics. Background controls consisted of both buffer and solution controls. […]
(§4) The solutions were incubated at 37° C. for 30 minutes, and the change in fluorescence emission (Δ fluorescence) was determined as the difference between the readings taken when the solutions were first mixed and then after 30 minutes incubation. Measurements were made in a commercially available MICROFLUOR Reader (available from Dynatech Laboratories, Alexandria, Virginia, U.S.A.), modified with an excitation filter at 540 nm, an emission filter at 620 nm and a Xenon lamp. […]

[2] = tested on: P. aeruginosa; assay: RIND XXIX reduction solution assay, Δ fluorescence; type: cell-based, Pseudomonas aeruginosa; conditions: P. aeruginosa (gram -) about 5×10^7 cells/ml
Description: as §1, §2, §3, §4

[3] = tested on: E. coli; assay: RIND XXIX reduction solution assay, Δ fluorescence; type: cell-based, Escherichia coli; conditions: E. coli (gram -) about 5×10^7 cells/ml
Description: as §1, §2, §3, §4

[4] = tested on: viable gram-positive and gram-negative bacteria; assay: Differentiation in RIND XXIX solution assays, overall result; type: cell-based
Description: Each test solution contained the following: dispersion of RIND XXIX (25 μl) prepared as described above, glucose (400 μl of 10% aqueous solution), tryptose (400 μl of 10% aqueous solution), trimethyl-1,4-benzoquinone ETA (500 μl of 1.5 mg/ml methanol). Aliquots (200 μl) of the mixture were mixed with solutions of the antibiotics (50 μl). The cell suspensions (50 μl) were then added. The final concentration of gramcidin S and tyrocidin were 0.1 mg/ml and 3.3 mg/ml, respectively. The final cell concentration was about 5×10^7 cells/ml. Cell control solutions contained all reagents except antibiotics. Background controls consisted of both buffer and solution controls. The buffer control contained all reagents except antibiotics and cells. The solution control contained all reagents except cells.
(§5) The solutions were incubated at 37° C. for 30 minutes, and the change in fluorescence emission (Δ fluorescence) was determined as the difference between the readings taken when the solutions were first mixed and then after 30 minutes incubation. Measurements were made in a commercially available MICROFLUOR Reader (available from Dynatech Laboratories, Alexandria, Virginia, U.S.A.), modified with an excitation filter at 540 nm, an emission filter at 620 nm and a Xenon lamp.
This example illustrates the practice of this invention to identify a Proteus species in solution. Test solutions and cell control solutions were prepared and tested as described in Example 2 and 3 except that polymixin B was used at 0.01 mg/ml of methanol. The final cell concentration was about 5×10^7 cells/ml.

[5] = tested on: P. vulgaris; assay: RIND XXIX reduction solution assay, Δ fluorescence; type: cell-based, Proteus vulgaris; conditions: P. vulgaris (gram -) about 5×10^7 cells/ml
Description: as §1, §2, §3, §4

[6] = tested on: E. cloacae; assay: RIND XXIX reduction solution assay, Δ fluorescence; type: cell-based, Enterobacter cloacae; conditions: E. cloacae (gram -) about 5×10^7 cells/ml
Description: as §1, §2, §3, §4

[7] = tested on: S. aureus; assay: DCIP reduction solution assay, ΔOD 620 nm; type: cell-based, Staphylococcus aureus; conditions: S. aureus (+) 5×10^7, tyrocidin 0.825 mg/ml, 37° C.
Description: (§6) These examples illustrate the differentiation of bacteria using a tetrazolium salt and phenolic dye as the reducible compounds and two cyclic polypeptide antibiotics according to the present invention. The tetrazolium salt was 3-(4,5-dimethyl-2-thiazolyl) -2,5-diphenyl-2H-tetrazolium bromide (MTT) which forms a colored formazan dye when reduced. The phenolic dye was 2,6-dichloroindophenol (DCIP) which forms a colorless species when reduced.
(§7) Solutions of the reducible compounds were prepared with the following: HEPES buffer (3 ml, 0.05 molar, pH 7.5), TRITON X-100 nonionic surfactant (1% concentration), glucose (50 μl of 10% in water), tryptose (50 μl of a 10% solution in water), MTT (25 μl of 5 mg/ml methanol) or DCIP (25 μl of 3 mg/ml methanol) and phenazine methosultate ETA (25 μl of 3 mg/ml methanol).
(§8) Test solutions were prepared from the following: reducible compound solution from above (200 μl), 50 μl of either gramicidin S solution (6 mg/ml methanol and 9 ml of buffer) or tyrocidin solution (100 mg/ml methanol and 8 ml of buffer) and 50 μl of cell suspension. […] The change in optical density (ΔOD) was determined after 30 minutes at 37° C. at 540 nm for the MTT assay and at 620 nm for the DCIP assay using a commercially available spectrophotometer.

[8] = tested on: S. aureus; assay: MTT reduction solution assay, ΔOD 540 nm; type: cell-based, Staphylococcus aureus; conditions: S. aureus (+) 5×10^7, tyrocidin 0.825 mg/ml, 37° C.
Description: as §6, §7, §8

[9] = tested on: S. faecalis; assay: RIND XXIX reduction solution assay, Δ fluorescence; type: cell-based, Streptococcus faecalis; conditions: S. faecalis (gram +) about 5×10^7 cells/ml, tyrocidin 3.3 mg/ml, 37° C.
Description: as §1
as §2, with “Compositions containing water-compatible RIND compounds were prepared as described above except the surfactant was omitted.” left out
as §5

[10] = tested on: E. coli; assay: DCIP reduction solution assay, ΔOD 620 nm; type: cell-based, Escherichia coli; conditions: E. coli (-) 5×10^7, tyrocidin 0.825 mg/ml, 37° C.
Description: as §6, §7, §8

[11] = tested on: P. aeruginosa; assay: MTT reduction solution assay, ΔOD 540 nm; type: cell-based, Pseudomonas aeruginosa; conditions: P. aeruginosa (-) 5×10^7, tyrocidin 0.825 mg/ml, 37° C.
Description: as §6, §7, §8

[12] = tested on: K. pneumoniae; assay: MTT reduction solution assay, ΔOD 540 nm; type: cell-based, Klebsiella pneumoniae; conditions: K. pneumoniae (-) 5×10^7, tyrocidin 0.825 mg/ml, 37° C.
Description: as §6, §7, §8

[13] = tested on: K. pneumoniae; assay: DCIP reduction solution assay, ΔOD 620 nm; type: cell-based, Klebsiella pneumoniae; conditions: K. pneumoniae (-) 5×10^7, tyrocidin 0.825 mg/ml, 37° C.
Description: as §6, §7, §8

[14] = tested on: S. aureus; assay: RIND XXIX reduction solution assay, Δ fluorescence; type: cell-based, Staphylococcus aureus; conditions: S. aureus (gram +) about 5×10^7 cells/ml, tyrocidin 3.3 mg/ml, 37° C.
Description: as §1
as §2, with “Compositions containing water-compatible RIND compounds were prepared as described above except the surfactant was omitted.” left out
as §5

[15] = tested on: E. coli; assay: MTT reduction solution assay, ΔOD 540 nm; type: cell-based, Escherichia coli; conditions: E. coli (-) 5×10^7, tyrocidin 0.825 mg/ml, 37° C.
Description: as §6, §7, §8

[16] = tested on: P. vulgaris; assay: MTT reduction solution assay, ΔOD 540 nm; type: cell-based, Proteus vulgaris; conditions: P. vulgaris (-) 5×10^7, tyrocidin 0.825 mg/ml, 37° C.
Description: as §6, §7, §8

[17] = tested on: S. faecalis; assay: MTT reduction solution assay, ΔOD 540 nm; type: cell-based, Streptococcus faecalis; conditions: S. faecalis (+) 5×10^7, tyrocidin 0.825 mg/ml, 37° C.
Description: as §6, §7, §8

[18] = tested on: E. cloacae; assay: MTT reduction solution assay, ΔOD 540 nm; type: cell-based, Enterobacter cloacae; conditions: E. cloacae (-) 5×10^7, tyrocidin 0.825 mg/ml, 37° C.
Description: as §6, §7, §8

[19] = tested on: E. cloacae; assay: DCIP reduction solution assay, ΔOD 620 nm; type: cell-based, Enterobacter cloacae; conditions: E. cloacae (-) 5×10^7, tyrocidin 0.825 mg/ml, 37° C.
Description: as §6, §7, §8

[20] = tested on: S. faecalis; assay: DCIP reduction solution assay, ΔOD 620 nm; type: cell-based, Streptococcus faecalis; conditions: S. faecalis (+) 5×10^7, tyrocidin 0.825 mg/ml, 37° C.
Description: as §6, §7, §8

[21] = tested on: P. aeruginosa; assay: DCIP reduction solution assay, ΔOD 620 nm; type: cell-based, Pseudomonas aeruginosa; conditions: P. aeruginosa (-) 5×10^7, tyrocidin 0.825 mg/ml, 37° C.
Description: as §6, §7, §8

[22] = tested on: P. vulgaris; assay: DCIP reduction solution assay, ΔOD 620 nm; type: cell-based, Proteus vulgaris; conditions: P. vulgaris (-) 5×10^7, tyrocidin 0.825 mg/ml, 37° C.
Description: as §6, §7, §8

[23] = polymixin B at 0.01 mg/ml of methanol

Substance: polymixin B
- Δ Relative Fluorescence (30 Minutes) [1, 23]: 1212
- Δ Relative Fluorescence (30 Minutes) [2, 23]: 1287
- Δ Relative Fluorescence (30 Minutes) [3, 23]: 1245
- inhibition of reduction of RIND XXIX by gram-negative microorganisms, in words [4, 23]: inhibited all of the gram-negative microorganisms except Proteus vulgaris from reducing the RIND XXIX compound
- Δ Relative Fluorescence (30 Minutes) [5, 23]: 3079
- Δ Relative Fluorescence (30 Minutes) [6, 23]: 1975

Substance: tyrocidin
- Δ Fluorescence (30 Minutes) ([1]; tyrocidin 3.3 mg/ml, 37° C.): > 4000
- Δ Fluorescence (30 Minutes) ([2]; tyrocidin 3.3 mg/ml, 37° C.): > 4000
- ΔOD, 620 nm after 30 Minutes [7]: 0.074
- Δ Fluorescence (30 Minutes) ([3]; tyrocidin 3.3 mg/ml, 37° C.): > 4000
- ΔOD, 540 nm after 30 Minutes [8]: 0.113
- Δ Fluorescence (30 Minutes) [9]: 0880
- ΔOD, 620 nm after 30 Minutes [10]: 1.054
- ΔOD, 540 nm after 30 Minutes [11]: 0.692
- ΔOD, 540 nm after 30 Minutes [12]: 0.842
- ΔOD, 620 nm after 30 Minutes [13]: 0.819
- Δ Fluorescence (30 Minutes) [14]: 1834
- ΔOD, 540 nm after 30 Minutes [15]: 1.207
- ΔOD, 540 nm after 30 Minutes [16]: 0.778
- differentiation between viable gram-positive and gram-negative bacteria, in words ([4]; gramicidin S 0.1 mg/ml, tyrocidin 3.3 mg/ml): can be used with RIND XXIX to differentiate between viable gram-positive and gram-negative bacteria
- ΔOD, 540 nm after 30 Minutes [17]: 0.048
- Δ Fluorescence (30 Minutes) ([5]; tyrocidin 3.3 mg/ml, 37° C.): > 4000
- ΔOD, 540 nm after 30 Minutes [18]: 0.748
- Δ Fluorescence (30 Minutes) ([6]; tyrocidin 3.3 mg/ml, 37° C.): > 4000
- ΔOD, 620 nm after 30 Minutes [19]: 0.999
- ΔOD, 620 nm after 30 Minutes [20]: 0.048
- ΔOD, 620 nm after 30 Minutes [21]: 0.983
- ΔOD, 620 nm after 30 Minutes [22]: 0.941
